Source: ChEMBL document CHEMBL2429746, “Cell-based medicinal chemistry optimization of high throughput screening hits for orally active antimalarials. Part 2: hits from SoftFocus kinase and other libraries” (J Med Chem, 2013)
Blank lines part the entries; values can stand above or below the compound they belong to.

Experiments:
Plasmodium falciparum [1] = assay: Antimalarial activity against Plasmodium falciparum infected in NOD SCID mouse after 4 days by Peters test; assay type: functional; conditions: 96 h
Plasmodium falciparum [2] = assay: Antimalarial activity against blood stage of Plasmodium falciparum 3D7 assessed as parasite viability after 72 hrs by SYBR green dye-based assay; assay type: functional, organism-based; conditions: 3D7, 72 h
Plasmodium falciparum [3] = assay: Antimalarial activity against blood stage of Plasmodium falciparum Dd2 assessed as parasite viability after 72 hrs by SYBR green dye-based assay; assay type: functional, organism-based; conditions: Dd2, 72 h
Plasmodium falciparum [4] = assay: Antimalarial activity against Plasmodium falciparum infected in po dosed SCID mouse assessed as reduction in parasitaemia by Peters test; assay type: functional
[5] = Half life in Sprague-Dawley rat at 5 mg/kg, po; assay type: ADME, organism-based; parameters: dose 5 mg/kg, route oral; conditions: in vivo

SMILES: O=C(O)CCc1cccc2c1B(O)OC2
ED90 (Plasmodium falciparum [1]): 0.6 mg/kg

SMILES: NC1=Nc2ccc(Cl)cc2C1(O)c1ccccc1 (stereo not given)
IC50 (Plasmodium falciparum [2]): 216 nM | IC50 (Plasmodium falciparum [3]): 507 nM

half-life [5]: 8.7 h
SMILES: COc1ccc(-c2cc(-c3ccc(S(C)(=O)=O)cc3)cnc2N)cn1
ED90 (Plasmodium falciparum [4]): 3.6 mg/kg
